Patent US20110182877A1, “SUSTAINED DELIVERY OF COMPSTATIN ANALOGS FROM GELS” (POTENTIA PHARMACEUTICALS, INC., priority 2007, published 2011)
Values joined by “and” are separate entries in the source; they are usually repeats but may differ in a detail not shown here. Equal entries are not always repeated. Bridge positions count the residues as written; N and C are the ends. Square brackets hold non-standard residues; d marks the D form. Trp(5-F) = N[C@@H](Cc1c[nH]c2ccc(F)cc12)C(=O)O

What was measured:
[1] = Ocular safety examinations after intravitreal injection (Example 1); format: in vivo; details: Cynomolgus monkey
Description: During studies involving intravitreal administration of the compstatin analog whose synthesis was described above (SEQ ID NO: 32) in water for injection to non-human primates it was observed that the compound has the ability to form gel-like, approximately spheroidal intravitreal deposits in the primate (Cynomolgus monkey) eye following intravitreal injection. […] The high dose consisted of the intravitreal (IVT) injection of an estimated dose of 150 μg of compound in a volume of 50 μL water for injection while the low dose consisted of an estimated dose of 3 μg of compound in a volume of 50 μL water for injection.
(§1) At necropsy, in the majority of male animals (10 of 12) that had been dosed with compound IVT at 150 μg/eye, gel-like spheroidal intravitreal deposits were observed upon dissection of the eye. These deposits were isolated and analyzed for the presence of the compound.

[2] = Intravitreal administration to non-human primates: deposit formation and compound content (Example 1); format: in vivo; details: Cynomolgus monkey, IVT 150 μg/eye, from 4 hours to 2 weeks post administration
Description: Two different formulations were manufactured by dissolving the compound into water for injection at different concentrations: (i) 0.299 mg/mL, designated LD and (ii) 4.51 mg/mL, designated as HD and filter sterilizing through a Millipore Durapore 47 mm 0.22 μm filter. The liquid compositions were dispensed into individual vials (250 μl each). The pH of the LD composition was 5.48 while that of the HD composition was 6.0.
During studies involving intravitreal administration of the compstatin analog whose synthesis was described above (SEQ ID NO: 32) in water for injection to non-human primates it was observed that the compound has the ability to form gel-like, approximately spheroidal intravitreal deposits in the primate (Cynomolgus monkey) eye following intravitreal injection. […]
as §1
The deposits were analyzed for drug content, and drug content was observed and measured using HPLC.

[3] = Indirect ophthalmoscope exam in dose-ranging study for vitreous deposits formation; format: in vivo, New Zealand White rabbits; design: key to Indirect Exam Vit.: 0: Clear, no deposits, bubbles, or haziness detectable; 1: Light haziness, no opaque deposits or vitreous opacity; 2: Moderate opacity or opaque bubble or deposit; 3: Pronounced vitreal opacity; 4: Opaque; key to Indirect Exam Retina: 0: Flat, no mars, blisters or blemishes; 1: Not flat; has wrinkles, bumps, or ripples; 2: Minor inflammation or bleeding; 3: Retinal detachment, moderate hemorrhage; 4: Destruction of retinal tissue (GA, CNV, retinal tear); details: NZW rabbit; for Indirect Exam Retina / Indirect Exam Vit.: 27 hours after treatment
Description: The study examined the ability of compound in amounts ranging from 0 to 200 μg/eye (0, 25, 50, 75, 100, 125, 150,175, 200 μg) to form deposits in the eye following intravitreal injection (Table 2). Each concentration was injected into three eyes. Thirteen animals were used for dose-ranging. Five additional animals were used for histological analysis.
Injection Procedures: Intravitreal injections were administered using a 0.5 cc tuberculin syringe (with permanently attached 29 G ½ inch needle); 0.2 ml of compound solution was withdrawn from the vial. Excess liquid was expelled, so that the syringe contained only the necessary volume of liquid for a single injection (50 μl). The eye was kept open using an eye lid speculum. The needle was inserted in the supero-temporal quadrant, through an area 3.5-4.0 mm posterior to the limbus, avoiding the horizontal meridian and aiming toward the center of the eye. Only half (¼ inch) of the needle total length (½ inch) was inserted into the eye. The injection volume was delivered slowly to prevent a rapid increase in intraocular pressure. To ensure that all the solution is in the eye and to avoid push-back through the injection site, the needle was removed slowly.
Ophthalmic Examinations: All animals received an ophthalmic exam (indirect ophthalmoscope) by a practicing clinical ophthalmologist prior to sacrifice.

[4] = Histopathological analysis of eyes after intravitreal injection; format: in vivo, New Zealand White rabbits
Description: Histopathological Analysis: After examination, animals were euthanized and eyes were enucleated, fixed in Davidson's solution, sectioned and H/E stained. Sections from both eyes of animals receiving 25, 50, or 100 μg/eye of compound (Table 2, last three animals) were examined by an American Board of Pathology-certified pathologist, and peer-reviewed by a board-certified and recognized expert veterinary pathologist.
Five animals in this study were also processed for histopathological evaluation. The eyes were evaluated by two pathologists. […] The cornea, iris, ciliary body, lens, sclera, retina, and vitreous were all normal.

[5] = Further studies of deposits, serum and vitreous concentration after intravitreal injection (Example 3); format: in vivo, Cynomolgus monkeys
Description: In one study, Cynomolgus monkeys were administered 0, 150, 450, 1050, or 2100 μg of compound in 50 μl WFI by intravitreal injection.
Some of the animals that had been administered 0, 450, 1050, or 2100 μg were sacrificed, and compound concentration in serum and vitreous was measured 14 days following administration. Compound measurement was performed using HPLC. […] When administered at concentrations too low to form a deposit, the compound is cleared from the Cynomolgus vitreous with a T1/2 of about 22 hours. Therefore, it is evident that the compound measured in this experiment after 2 weeks must reflect release from the deposit rather than residual compound that was never present in the deposit.
The study was continued to evaluate behavior of the deposits over time. […] There was evidence that they were diminishing in size and/or density at the 6 month time point. […] The deposits could be observed both by ophthalmoscopic examination and ultrasound. They appeared to continue diminishing in size and/or split into multiple smaller deposits over time.
The deposits were undetectable using these techniques by approximately 1 week following dosing.

[6] = tested on: complement activation; details: relative to compstatin amidated at the C-terminus; based on published data; cited from earlier work

CC[C@H](C)[C@H](NC(C)=O)C(=O)N[C@H]1CSSC[C@@H](C(=O)N[C@H](C(N)=O)[C@@H](C)O)NC(=O)[C@H](CCCNC(=N)N)NC(=O)[C@H](Cc2cnc[nH]2)NC(=O)[C@H](C)NC(=O)CNC(=O)[C@H](Cc2c[nH]c3ccccc23)NC(=O)[C@H](CC(=O)O)NC(=O)[C@H](CCC(N)=O)NC(=O)[C@H](Cc2cn(C)c3ccccc23)NC(=O)[C@H](C(C)C)NC1=O [Ac-V4(1-MeW)/H9A, Ac-ICV(1-methyl-W)QDWGAHRCT-CONH2]
Adverse reactions caused by compound within the vitreous cavity ([1]; IVT 3 or 150 μg/eye): no evidence that the compound within the vitreous cavity caused any apparent adverse reactions | ERG values ([1]; IVT 3 or 150 μg/eye): within normal limits | Tonometry, intraocular pressure ([1]; IVT 3 or 150 μg/eye): no drug-related changes in intraocular pressure | Vitreal haze, binocular indirect ophthalmoscopy ([1]; day 2, IVT 3 μg/eye): diffuse vitreal haze in the right eye of one animal | Vitreal haze, binocular indirect ophthalmoscopy ([1]; day 2, IVT 150 μg/eye): four animals | Slit lamp examinations of the anterior segment of the eye ([1]; days 2 and 15 following IVT administration): no abnormalities | Histopathology of the eyes ([1]; with or without intravitreal deposits): no drug-related abnormalities were observed | Compound in the vitreous [2]: presence of the compound at all time points examined | Indirect Exam Retina ([3]; 25 μg/eye IVT in 50 μl): 0 | Indirect Exam Vit. ([3]; 25 μg/eye IVT in 50 μl): 1 | Indirect Exam Retina ([3]; 50 μg/eye IVT in 50 μl): 0 | Indirect Exam Vit. ([3]; 50 μg/eye IVT in 50 μl): 2 and 1 | Indirect Exam Retina ([3]; 75 μg/eye IVT in 50 μl): 0 | Indirect Exam Vit. ([3]; 75 μg/eye IVT in 50 μl): 1 and 2 | Indirect Exam Retina ([3]; 100 μg/eye IVT in 50 μl): 0 | Indirect Exam Vit. ([3]; 100 μg/eye IVT in 50 μl): 2 and 3 | Indirect Exam Retina ([3]; 125 μg/eye IVT in 50 μl): 0 | Indirect Exam Vit. ([3]; 125 μg/eye IVT in 50 μl): 1 | Indirect Exam Retina ([3]; 150 μg/eye IVT in 50 μl): 0 | Indirect Exam Vit. ([3]; 150 μg/eye IVT in 50 μl): 2 and 1 | Indirect Exam Retina ([3]; 175 μg/eye IVT in 50 μl): 2 and 0 | Indirect Exam Vit. ([3]; 175 μg/eye IVT in 50 μl): 2 and 1 and 4 | Indirect Exam Retina ([3]; 200 μg/eye IVT in 50 μl): 0 | Indirect Exam Vit. ([3]; 200 μg/eye IVT in 50 μl): 1 | Pathological changes on indirect ophthalmoscopic exam ([3]; IVT 25-200 μg/eye): did not reveal any pathological changes | Eyes with vitreous haze ([3]; IVT, did not correlate strongly with dose): 9 of the 32 | Histopathological evaluation of eyes ([4]; NZW rabbit, single-dose IVT 25, 50 and 100 μg/eye, two pathologists): all the evaluated eyes were normal | Adverse effects attributable to the deposits ([4]; rabbit studies, histopathology and physical examination): No adverse effects attributable to the deposits were observed | Continued release based on serum samples ([5]; Cynomolgus monkey, IVT 450, 1050, 2100 μg, up to 1 year): continued release of compstatin analog occurred during this time | Serum concentration relative to vitreal concentration at the same dose ([5]; Cynomolgus monkeys, 14 days following IVT 450, 1050 or 2100 μg): approximately 100 fold lower | Duration of release from intravitreal deposits ([5]; Cynomolgus monkeys, IVT 450, 1050 or 2100 μg, serum and vitreous HPLC at 14 days): at least two weeks | half-life ([5]; cynomolgus monkey, other: intravitreal injection, Cynomolgus vitreous, concentrations too low to form a deposit, read-out: T1/2 of clearance from the vitreous (converted)): ~22 h | Adverse effects attributable to the deposits ([5]; monkey studies, histopathology and physical examination): No adverse effects attributable to the deposits were observed

Ac-ICV(5fW)QD(5fW)GAHRCT-CONH2 (Ac-ICV[Trp(5-F)]QD[Trp(5-F)]GAHRCT-NH2; disulfide 2-12) [Ac-V4(5fW)/W7(5fW)/H9A]
Activity over compstatin [6]: 161× more
